Experimental data from US20240390340A1 (INCYTE CORPORATION, priority 2023, published 2024).
Read-outs that look alike come from different tables or passages of the source.

Columns and labels:
[1] = target: KRAS G12V (Homo sapiens, UniProt P01116, G12V); test: GDP-GTP exchange assay (bodipy-GDP/GppNHp, SOS1), KRAS G12V; assay type: biochemical
[2] = target: KRAS G12D (Homo sapiens, UniProt P01116, G12D); test: GDP-GTP exchange assay (bodipy-GDP/GppNHp, SOS1), KRAS G12D; assay type: biochemical
[3] = KRAS G12V mutant, value for the most potent isomer quoted for certain compounds, read-out: G12V (KRAS G12V exchange assay IC50)
[4] = bodipy-loaded KRAS G12D 2.5 nM, 4 h pre-incubation, value for the most potent isomer quoted for certain compounds, read-out: G12D (KRAS G12D exchange assay IC50)
[5] = Table H, column G12V, for compounds isolated as several atropisomers/diastereoisomers the value for the most potent isomer is quoted, read-out: KRAS G12V exchange assay IC50
[6] = Table H, column G12D, for compounds isolated as several atropisomers/diastereoisomers the value for the most potent isomer is quoted, read-out: KRAS G12D exchange assay IC50

Chain of KRAS G12D (P01116 1-188 isoform P01116-2 G12D): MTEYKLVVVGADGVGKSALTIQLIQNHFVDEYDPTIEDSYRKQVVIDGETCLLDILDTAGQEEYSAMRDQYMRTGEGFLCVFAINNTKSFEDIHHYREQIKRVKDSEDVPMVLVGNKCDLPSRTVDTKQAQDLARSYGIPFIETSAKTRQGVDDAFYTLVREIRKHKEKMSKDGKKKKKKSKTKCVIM
Chain of KRAS G12V (P01116 1-188 isoform P01116-2 G12V): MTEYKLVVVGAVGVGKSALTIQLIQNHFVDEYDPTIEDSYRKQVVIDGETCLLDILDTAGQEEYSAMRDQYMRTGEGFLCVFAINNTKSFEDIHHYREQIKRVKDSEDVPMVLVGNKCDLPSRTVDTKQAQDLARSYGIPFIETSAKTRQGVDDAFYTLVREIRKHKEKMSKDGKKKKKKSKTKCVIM

Row | Compound | IC50 [1, 3] | IC50 [2, 4] | IC50 [1, 5] | IC50 [2, 6]
1 | COC(=O)c1ncn([C@H]2C[C@H](c3cc4c(C)nc5c(F)c(-c6cccc(Cl)c6Cl)c(CCC#N)cc5c4n3[C@H]3[C@H]4CN[C@@H]3C4)N(C(=O)C3CC3)C2)n1 [Example 348] | ≤ 100 nM | ≤ 100 nM | – | –
2 | Cc1nc2c(F)c(-c3cccc(Cl)c3Cl)c(CCC#N)cc2c2c1cc([C@H]1C[C@H](Oc3cccc(C#N)c3)[C@H](C)N1C(=O)C1CC1)n2[C@H]1[C@H]2CN[C@@H]1C2 [Example 209] | 100 to 1000 nM | ≤ 100 nM | – | –
3 | Cc1nc2c(F)c(-c3cccc(Cl)c3Cl)c(CCC#N)cc2c2c1cc([C@H]1C[C@H](Oc3ccnc(N4CC(C(F)F)C4)c3)CN1C(=O)C1CC1)n2[C@H]1[C@H]2CN[C@@H]1C2 [Example 370] | ≤ 100 nM | ≤ 100 nM | – | –
4 | Cc1nc2c(F)c(-c3cccc(Cl)c3Cl)c(CCC#N)cc2c2c1cc([C@H]1C[C@H](Oc3cccc(C4CC4)c3)CN1C(=O)C1CC1)n2[C@H]1[C@H]2CN[C@@H]1C2 [Example 169] | ≤ 100 nM | ≤ 100 nM | – | –
5 | Cc1nc2c(F)c(-c3cccc(Cl)c3Cl)c(CCC#N)cc2c2c1cc([C@H]1C[C@H](n3cnnn3)CN1C(=O)C1CC1)n2[C@H]1[C@H]2CN[C@@H]1C2 [Example 395] | ≤ 100 nM | ≤ 100 nM | – | –
6 | Cc1nc2c(F)c(-c3cccc(Cl)c3Cl)c(CCC#N)cc2c2c1cc([C@H]1C[C@H](Oc3ccn(C)n3)CN1C(=O)C1CC1)n2[C@H]1[C@H]2CN[C@@H]1C2 [Example 170] | ≤ 100 nM | ≤ 100 nM | – | –
7 | Cc1nc2c(F)c(-c3cccc(Cl)c3Cl)c(CCC#N)cc2c2c1cc([C@H]1C[C@H](c3ccccc3)CN1C(=O)C1CC1)n2[C@H]1[C@H]2CN[C@@H]1C2 [Example 109] | ≤ 100 nM | ≤ 100 nM | – | –
8 | COc1ncc(F)cc1O[C@H]1C[C@H](c2cc3c(C)nc4c(F)c(-c5cccc(Cl)c5Cl)c(CCC#N)cc4c3n2[C@H]2[C@H]3CN[C@@H]2C3)N(C(=O)C2CC2)C1 [Example 447] | ≤ 100 nM | ≤ 100 nM | – | –
9 | Cc1nc2c(F)c(-c3cccc(Cl)c3Cl)c(CCC#N)cc2c2c1cc([C@H]1C[C@H](Oc3ccnc(N4CC(OC(F)F)C4)c3)CN1C(=O)C1CC1)n2[C@H]1[C@H]2CN[C@@H]1C2 [Example 368] | ≤ 100 nM | ≤ 100 nM | – | –
10 | Cc1nc2c(F)c(-c3cccc(Cl)c3Cl)c(CCC#N)cc2c2c1cc([C@H]1C[C@H](Oc3cn(C)nc3C(F)(F)F)CN1C(=O)C1CC1)n2[C@H]1[C@H]2CN[C@@H]1C2 [Example 376] | ≤ 100 nM | ≤ 100 nM | – | –
11 | Cc1nc2c(F)c(-c3cccc(Cl)c3Cl)c(CCC#N)cc2c2c1cc([C@H]1C[C@H](n3ccc(CC#N)n3)CN1C(=O)C1CC1)n2[C@H]1[C@H]2CN[C@@H]1C2 [Example 316] | ≤ 100 nM | ≤ 100 nM | – | –
12 | Cc1nc2c(F)c(-c3cccc(Cl)c3Cl)c(CCC#N)cc2c2c1cc([C@H]1C[C@H](O[C@@H]3CCOC3)CN1C(=O)C1CC1)n2[C@H]1[C@H]2CN[C@@H]1C2 [Example 30] | – | – | ≤ 100 nM | ≤ 100 nM
13 | COc1cccnc1O[C@H]1C[C@H](c2cc3c(C)nc4c(F)c(-c5cccc(Cl)c5Cl)c(CCC#N)cc4c3n2[C@H]2[C@H]3CN[C@@H]2C3)N(C(=O)C2CC2)C1 [Example 307] | 100 to 1000 nM | 100 to 1000 nM | – | –
14 | Cc1nc2c(F)c(-c3cccc(Cl)c3Cl)c(CCC#N)cc2c2c1cc([C@H]1C[C@H](Oc3ccc(N4CCOCC4)nc3)CN1C(=O)C1CC1)n2[C@H]1[C@H]2CN[C@@H]1C2 [Example 36, 3-(1-((1R,4R,5S)-2-Azabicyclo[2.1.1]hexan-5-yl)-2-((2R,4S)-1-(cyclopropanecarbonyl)-4-((6-morpholinopyridin-3-yl)oxy)pyrrolidin-2-yl)-7-(2,3-dichlorophenyl)-6-fluoro-4-methyl-1H-pyrrolo[3,2-c]quinolin-8-yl)propanenitrile] | – | – | ≤ 100 nM | ≤ 100 nM
15 | COC(=O)[C@H]1C[C@H]1c1cn([C@H]2C[C@H](c3cc4c(C)nc5c(F)c(-c6cccc(Cl)c6Cl)c(CCC#N)cc5c4n3[C@H]3[C@H]4CN[C@@H]3C4)N(C(=O)C3CC3)C2)nn1 [Example 390] | ≤ 100 nM | ≤ 100 nM | – | –
16 | Cc1nc2c(F)c(-c3cccc(Cl)c3Cl)c(CCC#N)cc2c2c1cc([C@H]1C[C@H](OC(C)c3ncco3)CN1C(=O)C1CC1)n2[C@H]1[C@H]2CN[C@@H]1C2 (some centres unmarked) [Example 228] | ≤ 100 nM | ≤ 100 nM | – | –
17 | Cc1nc2c(F)c(-c3cccc(Cl)c3Cl)c(CCC#N)cc2c2c1cc([C@H]1C[C@H](OCc3ccnn3C(F)(F)F)CN1C(=O)C1CC1)n2[C@H]1[C@H]2CN[C@@H]1C2 [Example 312] | ≤ 100 nM | ≤ 100 nM | – | –
18 | Cc1nc2c(F)c(-c3cccc(Cl)c3Cl)c(CCC#N)cc2c2c1cc([C@H]1C[C@H](n3nnnc3C)CN1C(=O)C1CC1)n2[C@H]1[C@H]2CN[C@@H]1C2 [Example 397] | ≤ 100 nM | ≤ 100 nM | – | –
19 | COc1ncnc2c1ccn2[C@H]1C[C@H](c2cc3c(C)nc4c(F)c(-c5cccc(Cl)c5Cl)c(CCC#N)cc4c3n2[C@H]2[C@H]3CN[C@@H]2C3)N(C(=O)C2CC2)C1 [Example 73, 3-(1-((1R,4R,5S)-2-Azabicyclo[2.1.1]hexan-5-yl)-2-((2R,4S)-1-(cyclopropanecarbonyl)-4-(4-methoxy-7H-pyrrolo[2,3-d]pyrimidin-7-yl)pyrrolidin-2-yl)-7-(2,3-dichlorophenyl)-6-fluoro-4-methyl-1H-pyrrolo[3,2-c]quinolin-8-yl)propanenitrile] | – | – | ≤ 100 nM | ≤ 100 nM

Row | Compound | IC50 [1, 3] | IC50 [2, 4] | IC50 [1, 5] | IC50 [2, 6]
20 | Cc1nc2c(F)c(-c3cccc(Cl)c3Cl)c(CCC#N)cc2c2c1cc([C@H]1C[C@H](OCC3CCOCC3)CN1C(=O)C1CC1)n2[C@H]1[C@H]2CN[C@@H]1C2 [Example 29] | – | – | ≤ 100 nM | ≤ 100 nM
21 | N#CCCc1cc2c(nc(C3CCNC3)c3cc([C@H]4C[C@H](OCc5c(F)cccc5F)CN4C(=O)C4CC4)n([C@H]4[C@H]5CN[C@@H]4C5)c32)c(F)c1-c1cccc(Cl)c1Cl (some centres unmarked) [Example 239] | ≤ 100 nM | ≤ 100 nM | – | –
22 | Cc1nc2c(F)c(-c3cccc(Cl)c3Cl)c(CCC#N)cc2c2c1cc([C@H]1C[C@H](n3cc(C(C)(C)C(F)F)nn3)CN1C(=O)C1CC1)n2[C@H]1C2CNC1C2 (some centres unmarked) [Example 225] | ≤ 100 nM | ≤ 100 nM | – | –
23 | COc1ncccc1O[C@H]1C[C@H](c2cc3c(C(C)O)nc4c(F)c(-c5cccc(Cl)c5Cl)c(CCC#N)cc4c3n2[C@H]2[C@H]3CN[C@@H]2C3)N(C(=O)C2CC2)C1 (some centres unmarked) [Example 221] | ≤ 100 nM | ≤ 100 nM | – | –
24 | Cc1ccccc1C(=O)N1C[C@@H](OCc2c(F)cccc2F)C[C@@H]1c1cc2c(C)nc3c(F)c(-c4cccc(Cl)c4Cl)c(CCC#N)cc3c2n1[C@H]1[C@H]2CN[C@@H]1C2 [Example 196] | ≤ 100 nM | 100 to 1000 nM | – | –
25 | COCC1(c2cn([C@H]3C[C@H](c4cc5c(C)nc6c(F)c(-c7cccc(Cl)c7Cl)c(CCC#N)cc6c5n4[C@H]4[C@H]5CN[C@@H]4C5)N(C(=O)C4CC4)C3)nn2)CC1 [Example 383] | ≤ 100 nM | ≤ 100 nM | – | –
26 | Cc1ncccc1CO[C@H]1C[C@H](c2cc3c(C)nc4c(F)c(-c5cccc(Cl)c5Cl)c(CCC#N)cc4c3n2[C@H]2[C@H]3CN[C@@H]2C3)N(C(=O)C2CC2)C1 [Example 139] | ≤ 100 nM | ≤ 100 nM | – | –
27 | Cc1nc2c(F)c(-c3cccc(Cl)c3Cl)c(CCC#N)cc2c2c1cc([C@H]1C[C@H](OCC3(C)CC(F)(F)C3)CN1C(=O)C1CC1)n2[C@H]1[C@H]2CN[C@@H]1C2 [Example 412] | ≤ 100 nM | ≤ 100 nM | – | –
28 | Cc1nc2cc(O[C@H]3C[C@H](c4cc5c(C)nc6c(F)c(-c7cccc(Cl)c7Cl)c(CCC#N)cc6c5n4[C@H]4[C@H]5CN[C@@H]4C5)N(C(=O)C4CC4)C3)ccc2s1 [Example 132] | ≤ 100 nM | ≤ 100 nM | – | –
29 | C#Cc1ccc(O[C@H]2C[C@H](c3cc4c(C)nc5c(F)c(-c6cccc(Cl)c6Cl)c(CCC#N)cc5c4n3[C@H]3[C@H]4CN[C@@H]3C4)N(C(=O)C3CC3)C2)nc1 [Example 305] | ≤ 100 nM | ≤ 100 nM | – | –
30 | Cc1nc2c(F)c(-c3cccc(Cl)c3Cl)c(CCC#N)cc2c2c1cc([C@H]1C[C@H](Oc3cccc(C(C)C)c3)CN1C(=O)C1CC1)n2[C@H]1[C@H]2CN[C@@H]1C2 [Example 168] | ≤ 100 nM | 100 to 1000 nM | – | –
31 | Cc1nc2c(F)c(-c3cccc(Cl)c3Cl)c(CCC#N)cc2c2c1cc([C@H]1C[C@H](Oc3ccc(=O)n(C)c3)CN1C(=O)C1CC1)n2[C@H]1[C@H]2CN[C@@H]1C2 [Example 50] | – | – | ≤ 100 nM | ≤ 100 nM
32 | Cc1nc2c(F)c(-c3cccc(Cl)c3Cl)c(CCC#N)cc2c2c1cc([C@H]1C[C@H](OC3CCOC3)CN1C(=O)C1CC1)n2[C@H]1[C@H]2CN[C@@H]1C2 (some centres unmarked) [Example 364] | ≤ 100 nM | ≤ 100 nM | – | –
33 | Cc1nc2c(F)c(-c3cccc(Cl)c3Cl)c(CCC#N)cc2c2c1cc([C@H]1C[C@H](OC3CC3)CN1C(=O)C1CC1)n2[C@H]1[C@H]2CN[C@@H]1C2 [Example 230] | ≤ 100 nM | ≤ 100 nM | – | –
34 | Cc1nc2c(F)c(-c3cccc(Cl)c3Cl)c(CCC#N)cc2c2c1cc([C@H]1C[C@H](Oc3cc(C(F)(F)F)[nH]n3)CN1C(=O)C1CC1)n2[C@H]1[C@H]2CN[C@@H]1C2 [Example 409] | ≤ 100 nM | ≤ 100 nM | – | –
35 | Cc1nc2c(F)c(-c3cccc(Cl)c3Cl)c(CCC#N)cc2c2c1cc([C@H]1C[C@H](n3cc(C45CC(N)(C4)C5)nn3)CN1C(=O)C1CC1)n2[C@H]1[C@H]2CN[C@@H]1C2 [Example 275] | ≤ 100 nM | ≤ 100 nM | – | –
36 | Cc1nc2c(F)c(-c3cccc(Cl)c3Cl)c(CCC#N)cc2c2c1cc([C@H]1C[C@H](n3cc(CCC(=O)O)nn3)CN1C(=O)C1CC1)n2[C@H]1[C@H]2CN[C@@H]1C2 [Example 322] | ≤ 100 nM | ≤ 100 nM | – | –
37 | Cc1nc2c(F)c(-c3cccc(Cl)c3Cl)c(CCC#N)cc2c2c1cc([C@H]1C[C@H](n3cc(C#N)nn3)CN1C(=O)C1CC1)n2[C@H]1[C@H]2CN[C@@H]1C2 [Example 345] | ≤ 100 nM | ≤ 100 nM | – | –
